How the values were obtained:
Assay type in all cases: cell-based, human
MCF-7 cells [1] = assay: Cell growth (CCK-8); settings: 75 μmol/l peptide, MCF-7, CCK-8; means of three experiments (Fig. 1b)
Procedure: (§1) Cell growth was analyzed using 2-(2-methoxy-4-nitrophenyl)-3-(4-nitroph enyl)-5-(2,4-disulfophenyl)-2H-tetrazolium, monosodium salt, and the Cell Counting Kit-8 (CCK-8, Sigma). […] After culturing for another 48 hr, cell growth was analyzed by CCK-8 and the optical density was detected at 450 nm. The growth ratio was normalized to the cells without treatment.

MDA-MB-231 cells = assay: Cell growth (CCK-8); settings: 75 μmol/l peptide, MDA-MB-231, CCK-8; means of three experiments (Fig. 1b)
Procedure: as §1

MCF-7 cells [2] = assay: Cell cycle analysis, sub-G1 (propidium iodide, flow cytometry); settings: MCF-7, 100 μmol/l peptide, flow cytometry (Fig. 3a)
Procedure: MCF-7 and MDA-MB-231 cells were plated in 6-well plates for 24 hr, and the medium was replaced with fresh culture medium containing 100 μmol/l peptide. After incubation for 24 hr, the cells were harvested by trypsinization and then fixed with 70% 4 °C ethanol. Intracellular DNA was stained with […] propidium iodide in the dark for 30 min at room temperature, and the percentages of sub-G1 cells were determined by flow cytometry (BD LSRII analyzer; BD Biosciences).

| Substance | cell growth (MCF-7 cells [1]) | cell growth (MDA-MB-231 cells) | sub-G1 phase region (pro-apoptotic effect) (MCF-7 cells [2]) |
| --- | --- | --- | --- |
| H-TAT-NLS-GTDEAAAA-NH2 [TAT-NLS-BLBD-6m, mutated version of TAT-NLS-BLBD-6 (GTDEAAAA), used as control peptide] | did not affect the growth | did not affect the growth | 7.35% |
| H-TAT-NLS-GGGDPELCATDEMIPFKDEG-NH2 [TAT-NLS-BLBD-3] | inhibited the growth | inhibited the growth |  |

Source: publication PMC4707489, “A novel cell-penetrating peptide suppresses breast tumorigenesis by inhibiting β-catenin/LEF-1 signaling” (Scientific Reports, 2016)
